According to PMC10384011, “m-Terphenylamines, Acting as Selective COX-1 Inhibitors, Block Microglia Inflammatory Response and Exert Neuroprotective Activity” (Molecules, 2023):

Tests used:
ovine COX-1 = target: T1, ovine COX-1 (Ovis aries, UniProt P05979); experiment: Cyclooxygenase colorimetric inhibitor screening assay, COX-1; format: biochemical; conditions: for inhibition at 50 µM: ovine COX-1, 50 µM, % Inhibition at 50 µM (converted); for inhibition at 50 µM / IC50: read-out: oCOX-1; for IC50: ovine COX-1, colorimetric kit, triplicate;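 as to all read-outs here: COX peroxidase activity read colorimetrically as oxidized TMPD at 590 nm, arachidonic acid as substrate, inhibitors tested at 0.001–50 µM from DMSO stocks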
T1 construct: purchased Cayman Chemicals 701050
T1 sequence (P05979 25-600): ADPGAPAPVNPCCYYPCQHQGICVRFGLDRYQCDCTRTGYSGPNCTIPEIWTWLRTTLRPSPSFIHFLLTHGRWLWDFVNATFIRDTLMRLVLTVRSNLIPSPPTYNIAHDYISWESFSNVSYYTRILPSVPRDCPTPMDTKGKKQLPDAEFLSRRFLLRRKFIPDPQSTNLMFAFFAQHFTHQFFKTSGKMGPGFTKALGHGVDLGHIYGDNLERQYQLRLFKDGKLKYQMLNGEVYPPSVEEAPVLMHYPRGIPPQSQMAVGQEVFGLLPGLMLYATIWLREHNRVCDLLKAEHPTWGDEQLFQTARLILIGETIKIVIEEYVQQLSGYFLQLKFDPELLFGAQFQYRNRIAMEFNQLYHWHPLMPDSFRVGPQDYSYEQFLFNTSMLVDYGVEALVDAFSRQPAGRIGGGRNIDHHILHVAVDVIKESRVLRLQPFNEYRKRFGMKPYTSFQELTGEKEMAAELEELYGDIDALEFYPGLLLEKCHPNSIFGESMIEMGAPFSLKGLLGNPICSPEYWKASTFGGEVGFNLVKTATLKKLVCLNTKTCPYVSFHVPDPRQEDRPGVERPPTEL
Protocol: (§2) Newly synthesized compounds were evaluated for their ability to inhibit ovine COX-1 or human COX-2 enzyme by measuring the extent (%) of enzyme activity inhibition at different concentrations (0.001, 0.01, 0.1, 1, 10, 50 μM). […] The assay kit measures the peroxidase component of COXs that is assayed colorimetrically by monitoring the appearance of oxidized N,N,N′,N′-tetramethyl-p-phenylenediamine (TMPD) a λ = 590 nm. […] Stock solutions of test compounds were dissolved in DMSO.

human COX-2 = target: T2, human COX-2 (Homo sapiens, UniProt P35354); experiment: Cyclooxygenase colorimetric inhibitor screening assay, COX-2; format: biochemical; conditions: read-out: hCOX-2; for inhibition at 50 µM: human COX-2, 50 µM; for IC50: human COX-2, colorimetric kit;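 as to all read-outs here: peroxidase activity of COX-2 followed colorimetrically through formation of oxidized TMPD at 590 nm, with arachidonic acid as substrate, compounds tested from 0.001 to 50 µM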
T2 construct: purchased Cayman Chemicals 701050
T2 sequence (P35354 18-604): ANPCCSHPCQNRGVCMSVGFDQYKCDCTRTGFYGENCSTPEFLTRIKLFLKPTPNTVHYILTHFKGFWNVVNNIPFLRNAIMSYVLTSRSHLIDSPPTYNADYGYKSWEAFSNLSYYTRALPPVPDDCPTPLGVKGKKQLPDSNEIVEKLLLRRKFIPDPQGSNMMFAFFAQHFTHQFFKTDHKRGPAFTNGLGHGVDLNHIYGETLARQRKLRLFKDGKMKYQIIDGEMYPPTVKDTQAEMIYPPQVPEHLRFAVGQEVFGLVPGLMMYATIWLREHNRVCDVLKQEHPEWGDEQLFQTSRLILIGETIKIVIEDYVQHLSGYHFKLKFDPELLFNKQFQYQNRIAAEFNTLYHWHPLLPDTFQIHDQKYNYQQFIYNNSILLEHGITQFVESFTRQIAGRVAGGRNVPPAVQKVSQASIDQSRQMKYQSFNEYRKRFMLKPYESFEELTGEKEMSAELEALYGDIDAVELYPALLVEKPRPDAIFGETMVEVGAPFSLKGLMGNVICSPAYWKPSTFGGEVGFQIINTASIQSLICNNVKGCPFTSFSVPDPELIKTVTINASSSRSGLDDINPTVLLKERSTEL
Protocol: as §2

BV2 microglia cells [1] = experiment: Nitrite release (Griess reaction) in LPS-treated BV2 microglia; format: cell-based; conditions: LPS 1 μg/mL, basal = 100
Text: The COX-1 inhibition data prompted us to undertake further work on the activity of compounds 3 in a neuroinflammation situation. Once we had verified that the compounds studied were not toxic per se in microglia BV2 cells (see the data in Table S1), we measured the nitrites released to determine the efficacy of our compounds in reducing microglia activation. Nitric oxide is a potent mediator of the classic activated microglia phenotype (M1); in fact, the lack of nitrite release correlated with an anti-inflammatory microglia (M2) phenotype. Therefore, we evaluated the response of the BV2 microglia cells to a challenge of 1 μg/mL LPS. For this purpose, BV2 microglia cells were incubated with LPS, a well-known agonist of the toll-like receptor 4 (TLR4) that causes a neuroinflammatory response, in combination with increasing concentrations of our COX-1 inhibitors (1, 3, and 10 μM). […] Similar results were observed after 48 h of the LPS treatment.
(§1) Cultures were seeded into flasks containing supplemented medium and kept at 37 °C in a humidified atmosphere of 5% CO2 and 95% air. For assays, BV-2 cells were subcultured in 48-well plates at a seeding density of 1 × 10^5 cells per well. Cells were treated with LPS (Sigma-Aldrich, Madrid, Spain) for 24 or 48 h before confluence in RPMI with 1% FBS.
The NO assay was performed using the previously reported protocols. Briefly, 100 μL of culture supernatants were mixed with the same volume of Griess assay regent (1% sulfanilamide (Sigma Aldrich, Madrid, Spain), 0.1% naphthylethylenediamine dihydrochloride, and 2.5% phosphoric acid). Ten minutes later, the 560-nm absorbance was measured.

BV2 microglia cells [2] = experiment: LPS-induced activated (ramified) phenotype of BV2 microglia; format: cell-based; conditions: LPS 1 μg/mL, 24 h
Text: Next, we set out to study the changes in microglia phenotype under this toxicity protocol. As mentioned above, microglia are comprised of variable morphology cells that are always adapting to the surrounding media and, therefore, to physiopathological conditions. Indeed, morphological appearance is well correlated with the different states of microglia activation. The microglia-activated phenotype (M1), which is the classical state of this kind of cell in response to proinflammatory insults such as LPS, is linked with the overexpression of a plethora of cytokines and inflammatory markers, namely TNF, IL-1β, IL-6, MCP-1 or CD11b. All of these markers are commonly associated with morphological changes towards an amoeboid phenotype in primary cultures or in in vivo studies. Nevertheless, it has been recently described that BV2 microglia, as well as macrophages, turn from rounded to spindle-shaped or multipolar phenotypes in response to various M1 proinflammatory stimuli such as LPS/IFNγ or spinal cord injury conditioned media. In this context, we assessed the ability of our compounds to prevent the morphological changes induced by LPS by analyzing the percentage of BV2 ramified cells (multipolar or spindle) over the total BV2 per field following cell incubation with our compounds and 1 μg/mL LPS for 24 h.
as §1

BV2 microglia cells [3] = experiment: ROS production (H2DCFDA) in LPS-treated BV2 microglia; format: cell-based; conditions: LPS 1 μg/mL, 24 h
Text: Activation of toll-like receptors (TLRs), particularly the TLR4 subtype, is closely associated with the production of reactive oxygen and nitrogen species that contribute to neuronal death in the CNS. In this connection, NADPH oxidase enzymes are the main ones responsible for ROS production induced by NF-κB nuclear translocation. For this reason, we decided to assess the ROS levels of BV2 microglia cells treated with LPS and the effect of our compounds under this toxicity protocol. To this end, the compounds, at different concentrations (3 μM of 3a, 3b, and 3d and 10 μM of 3c) were incubated with 1 μg/mL LPS for 24 h. After this period, ROS production was measured with the fluorescent probe H2DCFDA. Treatment with LPS increased by 1.75-fold the amount of ROS compared with control cells.
as §1
To measure cellular ROS, we used the molecular probe 2′,7′-dichlorodihydrofluorescein diacetate (H2DCFDA). Glial cells were loaded with 5 µM H2DCFDA as it was previously described (Parada et al., 2015). Fluorescence was measured in a fluorescence microplate reader (FLUOstar Galaxy; BMG Labtech, Offenburg, Germany). Wavelengths of excitation and emission were 485 and 520 nm, respectively. The relative pixel intensity was measured in identical regions with (ImageJ 1.52a software, National Institutes of Health, Bethesda, MD, USA).

[4] = system: organotypic hippocampal cultures (OHCs); experiment: Cell death (propidium iodide uptake, CA1) in organotypic hippocampal cultures treated with LPS; format: cell-based, Sprague-Dawley rats; conditions: LPS 1 μg/mL, 24 h
Protocol: With these promising data in hand, we selected compound 3b for its study in a more complex preparation. In vivo administration of LPS produces a proinflammatory cascade that causes memory deficits, an increase of inflammatory markers, and impairment of hippocampal glutamatergic transmission, contributing to neuronal death. All of these functional changes have been described to take place mainly in the hippocampus region. Thus, we subjected organotypic hippocampal cultures (OHCs) to LPS (1 μg/mL) to assess the protective effect of COX-1 inhibition. This kind of explant allows us to study the microglia-neuron network in a more complex and physiological model of cerebral insult.
OHCs were conducted on 8–10-day-old Sprague-Dawley rats supplied by the animal facilities of Universidad Autónoma de Madrid (Madrid, Spain). Cultures were prepared according to the methods described by Stoppini et al. with some modifications. […]
Cell death was determined in the CA1 region by staining the OHCs with propidium iodide (PI). Thirty minutes before analyzing fluorescence, slices were incubated with PI (1 µg/mL). Fluorescence was measured in an epifluorescence Olympus BX50WI microscope. […] Fluorescence was measured in each slice using ImageJ.

BV2 microglia cells [5] = experiment: Nitrite release (Griess reaction) in LPS-treated BV2 microglia; format: cell-based; conditions: 100 nM, LPS 1 μg/mL, basal = 100

SMILES	inhibition at 50 µM (ovine COX-1) [%]	IC50 (ovine COX-1) [µM]	COX-1/COX-2 inhibition ratio (ovine COX-1; ovine COX-1 vs human COX-2)	inhibition at 50 µM (human COX-2) [%]	IC50 (human COX-2) [µM]	Nitrite Release after 24 h (BV2 microglia cells [1]; 1 μM) [%]	Nitrite Release after 48 h (BV2 microglia cells [1]; 1 μM) [%]	Nitrite Release after 24 h (BV2 microglia cells [1]; 3 μM) [%]	Nitrite Release after 48 h (BV2 microglia cells [1]; 3 μM) [%]	Nitrite Release after 24 h (BV2 microglia cells [1]; 10 μM) [%]	Nitrite Release after 48 h (BV2 microglia cells [1]; 10 μM) [%]	Reduction of the number of BV2 ramified cells (BV2 microglia cells [2]; 3 μM) [%]	ROS production induced by LPS (BV2 microglia cells [3]; 3 μM)	COX-1 selectivity (in words) (ovine COX-1; ovine COX-1 vs human COX-2)	Reduction of the number of BV2 ramified cells (BV2 microglia cells [2]; 10 μM) [%]	ROS production induced by LPS (BV2 microglia cells [3]; 100 nM)	Cell death (PI uptake in CA1) induced by LPS [4]	Nitrite Release after 24 h (BV2 microglia cells [5]; 24 h) [%]	Nitrite Release after 48 h (BV2 microglia cells [5]; 48 h) [%]
Nc1cc(-c2ccccc2)cc(-c2ccccc2)c1 [Compound 3a, 5′-Amino-m-terphenyl]	86	0.8 ± 0.39	around 7	70	5.4	130 ± 14	145 ± 17	110 ± 7	119 ± 10	122 ± 10	120 ± 15	60	significantly reverted ROS production almost to basal levels						
Nc1cc(-c2ccccc2)cc(-c2ccc(Cl)cc2)c1 [Compound 3c, 4-Chloro-5′-amino-m-terphenyl]	100	4.7 ± 3.04			> 50	135 ± 6	181 ± 9	117 ± 8	163 ± 5	110 ± 6	138 ± 7		significantly reverted ROS production almost to basal levels	complete selectivity towards COX-1	60				
COc1ccc(-c2cc(N)cc(-c3ccccc3)c2)cc1 [Compound 3e, 4-Methoxy-5′-amino-m-terphenyl]	73	0.9 ± 0.76		8		124 ± 9	144 ± 15	110 ± 6	133 ± 13	103 ± 9	131 ± 13	60							
COc1ccc(-n2nc(C(F)(F)F)cc2-c2ccc(Cl)cc2)cc1 [SC-560, reference compound]																significantly reverted ROS production almost to basal levels	prevented	114 ± 9	135 ± 8
